Earlier results as cited in patent US20110208437A1, “METHOD AND APPARATUS FOR I[…] SAFE AND E[…] REGIMEN” (THE MCLEAN HOSPITAL CORPORATION, priority 2008, published 2011).

Assays:
[1] = clinical trials, adults and children
dopamine reuptake = dopamine reuptake (Homo sapiens, UniProt Q01959)
[2] = 2.5 mg Focalin same therapeutic benefit as 5.0 mg Ritalin
[3] = oral administration of the same mg/kg dose

Chain of dopamine reuptake (Q01959 whole entry): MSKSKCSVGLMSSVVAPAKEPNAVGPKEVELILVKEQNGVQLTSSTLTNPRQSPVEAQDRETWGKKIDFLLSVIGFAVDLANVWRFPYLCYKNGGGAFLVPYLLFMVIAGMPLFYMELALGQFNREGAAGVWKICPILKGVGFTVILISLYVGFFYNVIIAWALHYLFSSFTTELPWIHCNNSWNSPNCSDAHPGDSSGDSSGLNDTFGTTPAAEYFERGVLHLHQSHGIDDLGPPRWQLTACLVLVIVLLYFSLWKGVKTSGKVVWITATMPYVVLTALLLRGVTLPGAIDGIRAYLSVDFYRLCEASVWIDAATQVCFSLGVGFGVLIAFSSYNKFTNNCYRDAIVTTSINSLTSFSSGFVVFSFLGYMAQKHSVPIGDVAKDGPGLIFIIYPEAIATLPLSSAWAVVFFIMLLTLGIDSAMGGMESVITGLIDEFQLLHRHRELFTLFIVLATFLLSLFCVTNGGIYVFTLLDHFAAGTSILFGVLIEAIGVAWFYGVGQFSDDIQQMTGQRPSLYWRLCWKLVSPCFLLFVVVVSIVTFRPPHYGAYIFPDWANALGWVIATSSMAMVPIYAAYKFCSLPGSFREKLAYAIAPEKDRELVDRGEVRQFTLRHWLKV

## CNCC[C@@H](Oc1ccccc1C)c1ccccc1 [Atomoxetine]
[1]
  coverage of symptoms associated with ADHD: 24 h

## CC(NC(C)(C)C)C(=O)c1cccc(Cl)c1 (stereo not shown) [Bupropion]
Dopamine reuptake
  potency as inhibitor of dopamine reuptake relative to norepinephrine reuptake: twice as potent

## COC(=O)[C@H](c1ccccc1)[C@H]1CCCCN1 [Focalin]
[2]
  potency relative to methylphenidate: twice as potent

## COC(=O)C(c1ccccc1)C1CCCCN1 (stereo not shown) [IR-MPH, methylphenidate]
[3]
  differences between individuals in peak blood levels (Cmax): 2-3 fold
